# How the values were obtained:
# in vitro [1] = conditions: human, MT2 cells
# Description: Cytotoxicity against human MT2 cells
# cells [2] = conditions: Human immunodeficiency virus 1, subtype B NL4-3, MT2
# [3] = Dissociation constant, pKa of the compound; assay type: physicochemical
# in vivo [4] = conditions: Sprague-Dawley, rat, po, 5 mg/kg
# in vivo [5] = conditions: Sprague-Dawley, rat, po, 5 mg/kg; remark: listed apart in the source
# in vitro [6] = conditions: rat, liver microsomes
# Description: Half life in rat liver microsomes at 0.5 uM in presence of NADPH by LC-MS/MS method
# in vitro [7] = conditions: mouse, liver microsomes
# Description: Half life in mouse liver microsomes at 0.5 uM in presence of NADPH by LC-MS/MS method
# in vitro [8] = conditions: human, liver microsomes
# Description: Half life in human liver microsomes at 0.5 uM in presence of NADPH by LC-MS/MS method
# cells [9] = conditions: Human immunodeficiency virus 1, subtype B NL4-3, MT2; remark: listed apart in the source
# in vivo [10] = conditions: Sprague-Dawley, rat, plasma, po, 5 mg/kg
# Description: Plasma concentration in Sprague-Dawley rat at 5 mg/kg, po via gavage after 24 hrs by LC-MS/MS analysis
# [11] = AUClast in Sprague-Dawley rat at 5 mg/kg, po via gavage up to 24 hrs by LC-MS/MS analysis; assay type: ADME, organism-based; parameters: time < 24 hr, dose 5 mg/kg, route oral; conditions: in vivo
# [12] = Oral bioavailability in Sprague-Dawley rat at 35 mg/kg via gavage up to 24 hrs by LC-MS/MS analysis; assay type: ADME, organism-based; conditions: in vivo
# Rattus norvegicus [13] = assay: Dose normalized AUC in Sprague-Dawley rat at 11.8 mg/kg, po via gavage up to 24 hrs by LC-MS/MS analysis; assay type: ADME, organism-based; conditions: in vivo
# Rattus norvegicus [14] = assay: Extrapolated AUC in Sprague-Dawley rat at 35 mg/kg, po via gavage up to 24 hrs by LC-MS/MS analysis; assay type: ADME, organism-based; conditions: in vivo
# [15] = Dose normalized plasma concentration in Sprague-Dawley rat at 35 mg/kg, po via gavage after 24 hrs by LC-MS/MS analysis; assay type: ADME, organism-based; conditions: in vivo
# Rattus norvegicus [16] = assay: Dose normalized AUC in Sprague-Dawley rat at 124 mg/kg, po via gavage up to 24 hrs by LC-MS/MS analysis; assay type: ADME, organism-based; conditions: in vivo
# [17] = Cmax in Sprague-Dawley rat at 35 mg/kg, po via gavage by LC-MS/MS analysis; assay type: ADME, organism-based; parameters: dose 35 mg/kg, route oral; conditions: in vivo
# [18] = Cmax in Sprague-Dawley rat at 124 mg/kg, po via gavage by LC-MS/MS analysis; assay type: ADME, organism-based; parameters: dose 124 mg/kg, route oral; conditions: in vivo
# Rattus norvegicus [19] = assay: Extrapolated AUC in Sprague-Dawley rat at 5 mg/kg, po via gavage up to 24 hrs by LC-MS/MS analysis; assay type: ADME, organism-based; conditions: in vivo
# [20] = AUClast in Sprague-Dawley rat at 124 mg/kg, po via gavage up to 24 hrs by LC-MS/MS analysis; assay type: ADME, organism-based; parameters: time < 24 hr, dose 124 mg/kg, route oral; conditions: in vivo
# [21] = AUClast in Sprague-Dawley rat at 35 mg/kg, po via gavage up to 24 hrs by LC-MS/MS analysis; assay type: ADME, organism-based; parameters: time < 24 hr, dose 35 mg/kg, route oral; conditions: in vivo
# [22] = Dose normalized plasma concentration in Sprague-Dawley rat at 11.8 mg/kg, po via gavage after 24 hrs by LC-MS/MS analysis; assay type: ADME, organism-based; conditions: in vivo
# [23] = Tmax in Sprague-Dawley rat at 124 mg/kg, po via gavage by LC-MS/MS analysis; assay type: ADME, organism-based; conditions: in vivo
# [24] = Oral bioavailability in Sprague-Dawley rat at 5 mg/kg via gavage up to 24 hrs by LC-MS/MS analysis; assay type: ADME, organism-based; conditions: in vivo
# [25] = Plasma concentration in Sprague-Dawley rat at 35 mg/kg, po via gavage after 24 hrs by LC-MS/MS analysis; assay type: ADME, organism-based
# [26] = Dose normalized plasma concentration in Sprague-Dawley rat at 5 mg/kg, po via gavage after 24 hrs by LC-MS/MS analysis; assay type: ADME, organism-based; conditions: in vivo
# [27] = Tmax in Sprague-Dawley rat at 5 mg/kg, po via gavage by LC-MS/MS analysis; assay type: ADME, organism-based; conditions: in vivo
# [28] = Tmax in Sprague-Dawley rat at 35 mg/kg, po via gavage by LC-MS/MS analysis; assay type: ADME, organism-based; conditions: in vivo
# [29] = Plasma concentration in Sprague-Dawley rat at 11.8 mg/kg, po via gavage after 24 hrs by LC-MS/MS analysis; assay type: ADME, organism-based
# [30] = AUClast in Sprague-Dawley rat at 11.8 mg/kg, po via gavage up to 24 hrs by LC-MS/MS analysis; assay type: ADME, organism-based; parameters: dose 11.8 mg/kg, time < 24 hr, route oral; conditions: in vivo
# [31] = Tmax in Sprague-Dawley rat at 11.8 mg/kg, po via gavage by LC-MS/MS analysis; assay type: ADME, organism-based; conditions: in vivo
# [32] = Cmax in Sprague-Dawley rat at 5 mg/kg, po via gavage by LC-MS/MS analysis; assay type: ADME, organism-based; parameters: dose 5 mg/kg, route oral; conditions: in vivo
# [33] = Total AUC in Sprague-Dawley rat at 124 mg/kg, po via gavage up to 24 hrs by LC-MS/MS analysis; assay type: ADME, organism-based; parameters: dose 124 mg/kg, time AUCmax, route oral; conditions: in vivo
# Rattus norvegicus [34] = assay: Extrapolated AUC in Sprague-Dawley rat at 11.8 mg/kg, po via gavage up to 24 hrs by LC-MS/MS analysis; assay type: ADME, organism-based; conditions: in vivo
# Rattus norvegicus [35] = assay: Dose normalized AUC in Sprague-Dawley rat at 35 mg/kg, po via gavage up to 24 hrs by LC-MS/MS analysis; assay type: ADME, organism-based; conditions: in vivo
# [36] = Total AUC in Sprague-Dawley rat at 11.8 mg/kg, po via gavage up to 24 hrs by LC-MS/MS analysis; assay type: ADME, organism-based; parameters: dose 11.8 mg/kg, time AUCmax, route oral; conditions: in vivo
# [37] = Oral bioavailability in Sprague-Dawley rat at 11.8 mg/kg via gavage up to 24 hrs by LC-MS/MS analysis; assay type: ADME, organism-based; conditions: in vivo
# [38] = Plasma concentration in Sprague-Dawley rat at 124 mg/kg, po via gavage after 24 hrs by LC-MS/MS analysis; assay type: ADME, organism-based
# Rattus norvegicus [39] = assay: Dose normalized AUC in Sprague-Dawley rat at 5 mg/kg, po via gavage up to 24 hrs by LC-MS/MS analysis; assay type: ADME, organism-based; conditions: in vivo
# Rattus norvegicus [40] = assay: Extrapolated AUC in Sprague-Dawley rat at 124 mg/kg, po via gavage up to 24 hrs by LC-MS/MS analysis; assay type: ADME, organism-based; conditions: in vivo
# [41] = Total AUC in Sprague-Dawley rat at 35 mg/kg, po via gavage up to 24 hrs by LC-MS/MS analysis; assay type: ADME, organism-based; parameters: dose 35 mg/kg, time AUCmax, route oral; conditions: in vivo
# [42] = Oral bioavailability in Sprague-Dawley rat at 124 mg/kg via gavage up to 24 hrs by LC-MS/MS analysis; assay type: ADME, organism-based; conditions: in vivo
# [43] = Dose normalized plasma concentration in Sprague-Dawley rat at 124 mg/kg, po via gavage after 24 hrs by LC-MS/MS analysis; assay type: ADME, organism-based; conditions: in vivo
# [44] = Cmax in Sprague-Dawley rat at 11.8 mg/kg, po via gavage by LC-MS/MS analysis; assay type: ADME, organism-based; parameters: dose 11.8 mg/kg, route oral; conditions: in vivo
# [45] = Total AUC in Sprague-Dawley rat at 5 mg/kg, po via gavage up to 24 hrs by LC-MS/MS analysis; assay type: ADME, organism-based; parameters: dose 5 mg/kg, time AUCmax, route oral; conditions: in vivo
# Rattus norvegicus [46] = assay: Toxicity in Sprague-Dawley rat at 5 to 124 mg/kg, po via gavage up to 24 hrs by LC-MS/MS analysis; assay type: organism-based; conditions: in vivo
structure (smiles),measurement,setting,value
C=C(C)[C@@H]1CC[C@]2(CNCCCN3CCOCC3)CC[C@]3(C)[C@H](CC[C@@H]4[C@@]5(C)CC=C(c6ccc(C(=O)O)cc6)C(C)(C)[C@@H]5CC[C@]43C)[C@@H]12,CC50,in vitro [1],2200 nM
same,IC50,cells [2],28 nM
same,pKa,[3],8.2
same,AUC(0-t) at 6 h,in vivo [4],0.045 µM·h
C=C(C)[C@@H]1CC[C@]2(CNCCN(C)C)CC[C@]3(C)[C@H](CC[C@@H]4[C@@]5(C)CC=C(c6ccc(C(=O)O)cc6)C(C)(C)[C@@H]5CC[C@]43C)[C@@H]12,AUC(0-t) at 24 h,in vivo [5],1.28 µM·h
same,half-life at 0.5 µM,in vitro [6],> 2 h
same,CC50,in vitro [1],1200 nM
same,IC50,cells [2],21 nM
same,half-life at 0.5 µM,in vitro [7],> 2 h
same,half-life at 0.5 µM,in vitro [8],> 2 h
C=C(C)[C@@H]1CC[C@]2(CNCCN3CCOCC3)CC[C@]3(C)[C@H](CC[C@@H]4[C@@]5(C)CC=C(c6ccc(C(=O)O)cc6)C(C)(C)[C@@H]5CC[C@]43C)[C@@H]12,half-life at 0.5 µM,in vitro [6],> 2 h
same,CC50,in vitro [1],5000 nM
same,IC50,cells [2],15 nM
same,half-life at 0.5 µM,in vitro [7],1.5 h
same,pKa,[3],8.2
same,half-life at 0.5 µM,in vitro [8],1.62 h
C=C(C)[C@@H]1CC[C@]2(CNCCN3CCC(F)(F)CC3)CC[C@]3(C)[C@H](CC[C@@H]4[C@@]5(C)CC=C(c6ccc(C(=O)O)cc6)C(C)(C)[C@@H]5CC[C@]43C)[C@@H]12,half-life at 0.5 µM,in vitro [6],> 2 h
same,CC50,in vitro [1],8500 nM
same,IC50,cells [2],57 nM
same,half-life at 0.5 µM,in vitro [7],> 2 h
same,pKa,[3],8.6
same,half-life at 0.5 µM,in vitro [8],> 2 h
C=C(C)[C@@H]1CC[C@]2(C(=O)NCCN(C)C)CC[C@]3(C)[C@H](CC[C@@H]4[C@@]5(C)CC=C(c6ccc(C(=O)O)cc6)C(C)(C)[C@@H]5CC[C@]43C)[C@@H]12,AUC(0-t) at 24 h,in vivo [5],3.81 µM·h
same,half-life at 0.5 µM,in vitro [6],> 2 h
same,IC50,cells [2],31 nM
same,EC50,cells [9],201 nM
same,half-life at 0.5 µM,in vitro [7],> 2 h
same,half-life at 0.5 µM,in vitro [8],> 2 h
same,concentration at 24 h,in vivo [10],27 nM
C=C(C)[C@@H]1CC[C@]2(CNCCCN3CCS(=O)(=O)CC3)CC[C@]3(C)[C@H](CC[C@@H]4[C@@]5(C)CC=C(c6ccc(C(=O)O)cc6)C(C)(C)[C@@H]5CC[C@]43C)[C@@H]12.Cl,AUC(0-t) at 24 h,[11],2.99 µM·h
same,bioavailability,[12],7%
same,AUC/dose,Rattus norvegicus [13],461 µM·h
same,%AUCextra,Rattus norvegicus [14],14%
same,Cp/dose,[15],6.7 nM
same,AUC/dose,Rattus norvegicus [16],235 µM·h
same,Cmax,[17],451 nM
same,Cmax,[18],697 nM
same,%AUCextra,Rattus norvegicus [19],8%
same,AUC(0-t) at 24 h,[20],23.2 µM·h
same,AUC(0-t) at 24 h,[21],11.4 µM·h
same,Cp/dose,[22],7.7 nM
same,Tmax,[23],17.3 h
same,bioavailability,[24],12%
same,concentration at 24 h,[25],234 nM
same,Cp/dose,[26],6.8 nM
same,Tmax,[27],6.7 h
same,Tmax,[28],5.3 h
same,concentration at 24 h,[29],91 nM
same,AUC(0-t) at 24 h,[30],5.31 µM·h
same,Tmax,[31],4.7 h
same,Cmax,[32],232 nM
same,AUC at 24 h,[33],29.1 µM·h
same,%AUCextra,Rattus norvegicus [34],2%
same,AUC/dose,Rattus norvegicus [35],378 µM·h
same,AUC at 24 h,[36],5.44 µM·h
same,bioavailability,[37],8%
same,concentration at 24 h,[38],635 nM
same,AUC/dose,Rattus norvegicus [39],650 µM·h
same,%AUCextra,Rattus norvegicus [40],17%
same,AUC at 24 h,[41],13.2 µM·h
same,bioavailability,[42],4%
same,Cp/dose,[43],5.1 nM
same,Cmax,[44],285 nM
same,AUC at 24 h,[45],3.25 µM·h
same,concentration at 24 h,in vivo [10],34 nM
C=C(C)[C@@H]1CC[C@]2(CNCCCN3CCS(=O)(=O)CC3)CC[C@]3(C)[C@H](CC[C@@H]4[C@@]5(C)CC=C(c6ccc(C(=O)O)cc6)C(C)(C)[C@@H]5CC[C@]43C)[C@@H]12,AUC(0-t) at 24 h,in vivo [5],2.81 µM·h
same,CC50,in vitro [1],3500 nM
same,Activity,Rattus norvegicus [46],Non-Toxic
same,EC50,cells [9],20 nM
same,AUC(0-t) at 6 h,in vivo [4],1.71 µM·h
C=C(C)[C@@H]1CC[C@]2(CN(C)CCCN3CCS(=O)(=O)CC3)CC[C@]3(C)[C@H](CC[C@@H]4[C@@]5(C)CC=C(c6ccc(C(=O)O)cc6)C(C)(C)[C@@H]5CC[C@]43C)[C@@H]12,AUC(0-t) at 24 h,in vivo [5],9.06 µM·h
same,half-life at 0.5 µM,in vitro [6],> 2 h
same,CC50,in vitro [1],10000 nM
same,IC50,cells [2],26 nM
same,half-life at 0.5 µM,in vitro [7],> 2 h
same,half-life at 0.5 µM,in vitro [8],> 2 h
same,AUC(0-t) at 6 h,in vivo [4],4.83 µM·h

# Source: ChEMBL document CHEMBL4219213, “The design, synthesis and structure-activity relationships associated with C28 amine-based betulinic acid derivatives as inhibitors of HIV-1 maturation” (Bioorg Med Chem Lett, 2018)
